Experimental data taken from a melting point compilation (Tetko et al.).

| SMILES | melting point |
| --- | --- |
| Cc1nn(C)c(C)c1S(=O)(=O)NC(C)C(=O)O (configuration not stated) | 197 to 199 °C |
| O=S1(=O)C=CC(N=C=S)C1 (configuration not stated) | 61 to 63 °C |
| O=C1CCCN1c1ccc(O)cc1 | 159 to 161 °C |
| COc1ccnc(N)c1 | 99 to 101 °C |
| O=C(O)c1ccc(S(=O)(=O)N2CCCc3ccccc32)cc1 | 170 to 172 °C |
| O=Cc1ccc(-c2ccc(C(F)(F)F)cc2)o1 | 106 to 108 °C |
| N#CC=Cc1ccc(C(F)(F)F)cc1 | 89 to 91 °C |
| O=C(c1c(F)cccc1F)N1CCNCC1 | 111 to 113 °C |
| COc1ccc(Cc2nnn[nH]2)cc1F | 191 to 193 °C |
| O=Cc1c(Cl)nc2ccccn2c1=O | 213 to 215 °C |
| COC(=O)c1ccc(-c2nn[nH]n2)cc1 | 230 to 232 °C |
| Cc1ccccc1C(=O)CC#N | 84 to 86 °C |
| Cc1[nH]ncc1S(=O)(=O)Cl | 95 to 97 °C |
| NNC(=O)c1cn(-c2ccccc2)nc1-c1ccccc1 | 161 to 163 °C |
| CCCS(=O)(=O)Nc1ccccc1C(C)NC (configuration not stated) | 58 to 60 °C |
| CCCS(=O)(=O)Nc1ccc(N)cc1 | 111 to 113 °C |
| N#Cc1ccc(OCC(=O)NN)cc1 | 180 to 182 °C |
| Nc1ccn(Cc2ccccn2)n1 | 88 to 90 °C |
| Cc1cc(S(C)(=O)=O)c(C)c(S(=O)(=O)Cl)c1 | 122 to 124 °C |
| O=C(O)C1CC1c1cc(Cl)cc(Cl)c1 (configuration not stated) | 134 to 136 °C |
| O=C(O)c1cccc(NC(=O)c2ccc(F)cc2)c1 | 279 to 281 °C |
| NC(=O)c1cccc(CS)n1 | 61 to 63 °C |
| CC(C)(C)OC(=O)NCC1CC2CCCC(C1)N2 (configuration not stated) | 219 to 221 °C |
| COc1cc(Br)[nH]n1 | 70 to 72 °C |
| CC(C)CNC(=O)c1ccccc1N | 109 to 111 °C |
| CC(NC(=O)CC(F)(F)F)C(=O)O (configuration not stated) | 105 to 107 °C |

| SMILES | melting point |
| --- | --- |
| O=C1CNC(=O)N1c1cccc([N+](=O)[O-])c1 | 164 to 166 °C |
| Cn1cccc(N)c1=O | 112 to 114 °C |
| CCOC(=O)c1[nH]c2c(c1C)C(=O)CCC2 | 159 to 161 °C |
| CC(C)CNS(=O)(=O)c1ccc(Br)c(C(=O)O)c1 | 174 to 176 °C |
| Nc1nc(-c2ccc3c(c2)OCCO3)n[nH]1 | 178 to 180 °C |
| O=C(O)CCNC(=O)C1CCCC1 | 128 to 130 °C |
| OC1CC2CCCC(C1)N2Cc1ccccc1 (configuration not stated) | 57 to 59 °C |
| O=S(=O)(Cl)c1csc(-c2ccc(Br)cc2)n1 | 116 to 118 °C |
| COC(=O)CNc1ncccc1[N+](=O)[O-] | 104 to 106 °C |
| NC1CCCCC1O (configuration not stated) | 162 to 164 °C |
| Cc1cc(Cl)c2cc(Cl)cc(C)c2n1 | 122 to 124 °C |
| Cc1cnc(O)c([N+](=O)[O-])c1 | 247 to 249 °C |
| O=C(O)CNc1ccccc1[N+](=O)[O-] | 80 to 82 °C |
| O=C(O)c1ccc2c(c1)C(=O)N(C1CCCCC1)C2=O | 188 to 201 °C |
| O=C(O)C1(Br)CCCC1 | 66 to 68 °C |
| Nc1nc(-c2cccc(Oc3ccccc3)c2)ns1 | 138 to 140 °C |
| c1cn2c(n1)NCCC2 | 104 to 106 °C |
| Cc1ccc(C)n1-c1ccsc1C(=O)O | 185 to 187 °C |
| Cc1cc(C=O)ccc1-n1cncn1 | 104 to 106 °C |
| Cc1cc(=O)nc2sc(N3CCNCC3)nn12 | 234 to 236 °C |
| O=C(O)c1ccc(F)c(S(=O)(=O)Cl)c1 | 138 to 140 °C |
| CCN(CC)C(=O)c1ccc(C(=O)O)cc1 | 157 to 159 °C |
| Cc1cc(C(C)(C)C)cc(C)c1S(=O)(=O)Cl | 113 to 115 °C |
| NC(=NO)c1ccc(N2CCCCC2)nc1 | 165 to 167 °C |
| Oc1ccc2ccccc2c1CN1CCOCC1 | 52 to 54 °C |
| CCc1ccc(O)c(C(=O)O)c1 | 118 to 120 °C |

| SMILES | melting point |
| --- | --- |
| CN(C)C(=O)c1ccc(Cl)nc1 | 67 to 69 °C |
| COC(=O)c1cnn2ccccc12 | 79 to 81 °C |
| COc1ccccc1-c1ncc(C(=O)O)[nH]1 | 219 to 221 °C |
| O=C(O)c1nn(-c2cccc(Br)c2)c2c1CCCC2 | 193 to 195 °C |
| Cc1nnc(C(Cl)(Cl)Cl)o1 | 47 to 49 °C |
| CC(Oc1ccc(Cl)c(Cl)c1)C(=O)O (configuration not stated) | 125 to 127 °C |
| O=C(O)c1cnc(-c2ccc(Cl)s2)s1 | 235 to 237 °C |
| CN(C(=O)c1ccncc1)c1ccc(C#N)cc1 | 105 to 107 °C |
| Cc1cc(NC(=O)c2ccc(F)cc2Cl)sc1C(=O)O | 207 to 209 °C |
| [N-]=[N+]=NC(=O)c1ccco1 | 60 to 62 °C |
| O=C(O)C=C(C1CC1)C1CC1 | 134 to 136 °C |
| O=S(=O)(Cl)c1ncn[nH]1 | 58 to 60 °C |
| Cc1cc(C(=O)CC#N)c(C)n1CC(F)(F)F | 150 to 152 °C |
| COC(=O)C(O)c1cccc(O)c1 (configuration not stated) | 124 to 126 °C |
| O=Cc1ccc(-c2cccc(F)c2)s1 | 101 to 103 °C |
| N#CSc1ccc(N)cc1 | 43 to 56 °C |
| NS(=O)(=O)c1ccc(CNCC(F)(F)F)cc1 | 129 to 131 °C |
| N#Cc1ccc(Cl)cc1NC1CCCCC1 | 74 to 76 °C |
| Cn1cc([N+](=O)[O-])c(C(=O)O)n1 | 162 to 164 °C |
| O=C(O)CCCNc1nc(-c2ccccc2)cs1 | 155 to 157 °C |
| Cc1cc(C)n2nc(Br)nc2n1 | 185 to 187 °C |
| Fc1ccc(Oc2ccncc2)c(Br)c1 | 74 to 76 °C |
| COC(=O)c1ccnc(Cl)c1 | 31 to 33 °C |
| NC(=S)Cc1nc2ccccc2[nH]1 | 204 to 207 °C |
| NCC1(CO)CCOCC1 | 54 to 56 °C |
| OC(O)c1nc(-c2ccccc2)no1 | 103 to 105 °C |

Next, values leading:

| melting point | SMILES |
| --- | --- |
| 58 to 60 °C | Cn1cccc1C(=O)N1CCNCC1 |
| 261 to 263 °C | O=C(O)/C=C/c1cc(Cl)c2c(c1)OCCO2 |
| 47 to 49 °C | Fc1cc(Br)c(F)cc1S |
| 133 to 135 °C | FC(F)(F)c1cccc(-c2ccc(Cl)nn2)c1 |
| 159 to 161 °C | S=c1cc[nH]c2ccccc12 |
| 169 to 171 °C | CN(C)C(=O)C1CCC(C(=O)O)CC1 (configuration not stated) |
| 169 to 171 °C | O=Cc1c[nH]c2cccc(F)c12 |
| 56 to 58 °C | COCCOc1c(N)cccc1Cl |
| 218 to 220 °C | Oc1cccc(-c2cn[nH]c2)c1 |
| 148 to 150 °C | CCOC(=O)C(N)c1cccc(O)c1 (configuration not stated) |
| 141 to 143 °C | O=C(O)COc1ccc(C(=O)c2ccccc2Cl)cc1 |
| 96 to 98 °C | CC(C)(C)C(=O)Nc1nccnc1C(=O)O |
| 129 to 131 °C | CCCn1c(C)nnc1S |
| 129 to 131 °C | NCc1cccnc1N1CCC(C(N)=O)CC1 |
| 77 to 79 °C | CC1(C)SC(=O)NC1=O |
| 190 to 195 °C | O=C(O)c1ccc(-c2cc(Cl)cc(Cl)c2)s1 |
| 115 to 117 °C | Nc1ccc(C(=O)NCCO)cc1 |
| 279 to 281 °C | O=C(O)c1cc(-c2ccccc2)nc2c1cnn2Cc1ccncc1 |
| 199 to 201 °C | Cc1ccc(N)cc1N1C(=O)CCC1=O |
| 190 to 192 °C | COc1ccnc(NCC(=O)O)n1 |
| 115 to 117 °C | CC(c1ccccc1)C(O)C(=O)O (configuration not stated) |
| 154 to 156 °C | c1cc(-c2ccn[nH]2)ccn1 |
| 82 to 84 °C | O=C(c1ccccc1)c1c(Cl)cccc1Cl |

| melting point | SMILES |
| --- | --- |
| 129 to 131 °C | CCS(=O)(=O)Nc1ccc(N)cc1OC |
| 190 to 192 °C | CC(=O)Nc1cc2ccccc2cc1C(=O)O |
| 189 to 191 °C | Cn1cc(C(=O)O)c(=O)n(C)c1=O |
| 171 to 179 °C | Nc1ccc(Br)c(C(=O)O)c1 |
| 82 to 84 °C | Nc1cc(Cl)c(OC(F)F)c(Cl)c1 |
| 192 to 194 °C | Cc1ccc(C)c(-n2ccnc2S)c1 |
| 130 to 132 °C | CC(Cl)C(=O)Nc1ccc(C(F)(F)F)cc1 (configuration not stated) |
| 187 to 189 °C | O=C(O)c1cc(-c2cc(F)ccc2F)no1 |
| 46 to 48 °C | CCOC(=O)C(=O)c1ncc(Cl)n1C |
| 164 to 166 °C | C=CCNS(=O)(=O)c1cc(C(=O)O)ccc1F |
| 178 to 180 °C | COc1cc(OC)cc(-c2nnc(S)n2N)c1 |
| 105 to 107 °C | CNC(=O)COc1ccc(C=O)cc1OC |
| 181 to 183 °C | O=C(O)C(c1ccccc1)N1CCc2ccccc21 (configuration not stated) |
| 82 to 84 °C | NC1CCN(c2ncccn2)CC1 |
| 184 to 186 °C | CC(=O)N1CCCc2cc(C(=O)O)ccc21 |
| 80 to 82 °C | NNC(=O)CNc1cccc(C(F)(F)F)c1 |
| 276 to 278 °C | O=C(O)c1c[nH]nc1-c1ccc(Cl)cc1 |
| 249 to 251 °C | O=c1[nH]cnc2ncccc12 |
| 181 to 183 °C | CCOC(=O)c1nc(-c2ccccc2)oc1N |
| 179 to 181 °C | Cc1nn(Cc2ccc(Cl)cc2)c(O)c1C=O |
| 62 to 64 °C | Nc1cccc(-c2nccs2)c1 |
| 129 to 131 °C | CC(CC(=O)O)NC(=O)OCc1ccccc1 (configuration not stated) |
| 163 to 165 °C | Cc1ccc(NCCc2ccc(Cl)cc2)nn1 |

| melting point | SMILES |
| --- | --- |
| 89 to 91 °C | NCCNS(=O)(=O)Cc1ccon1 |
| 180 to 182 °C | Nc1c2c(nn1-c1ccccc1)CCC2 |
| 59 to 61 °C | COC(=O)C(=O)CC(=O)c1ccccc1C |
| 114 to 116 °C | O=C(O)c1cc(Cl)nc(Cl)n1 |
| 56 to 58 °C | Nc1ccn(Cc2ccccc2)n1 |
| 108 to 110 °C | CNc1ncccc1N |
| 191 to 193 °C | c1csc(-c2ncc[nH]2)c1 |
| 71 to 73 °C | Nc1cnccc1SCCCO |
| 192 to 195 °C | O=C(O)c1ccc(=O)n(Cc2ccccc2)n1 |
| 69 to 71 °C | Cc1cc(Br)cc2cc(C(=O)C(C)C)oc12 |
| 179 to 181 °C | Oc1ccc(OCc2ccncc2)cc1 |
| 84 to 86 °C | CC(C)(C)OC(=O)Nc1csc(Br)c1 |
| 156 to 158 °C | CC(C)S(=O)(=O)NCC1CCCNC1 (configuration not stated) |
| 206 to 208 °C | COc1ccc(NC(=O)C(=O)O)cc1 |
| 156 to 158 °C | O=C(O)CCC(=O)NCC(=O)c1ccccc1F |
| 131 to 133 °C | Cc1[nH]n(-c2ccc(Br)cc2)c(=N)c1C |
| 143 to 145 °C | N#Cc1c(CCl)cn2ccccc12 |
| 101 to 103 °C | COC(=O)c1ccc(C#N)cc1OC |
| 62 to 64 °C | Cc1ccc(I)c(O)c1 |
| 137 to 139 °C | Clc1nc(-c2cccnc2)nc2sc3c(c12)CCCC3 |
| 201 to 203 °C | CC(C)(C)c1ccc(C2(C(=O)O)CC2)cc1 |
| 155 to 157 °C | CS(=O)(=O)c1ccc(O)c(N)c1 |
| 148 to 150 °C | Clc1nc(-c2ccsc2)nc2sc3c(c12)CCCC3 |
